Test results reported in patent US9981940B2, “Aryl sulfide derivatives and aryl sulfoxide derivatives as acaricides and insecticides” (BAYER CROPSCIENCE AKTIENGESELLSCHAFT, priority 2013, dated 2018).

Columns and labels:
[1] = log P by HPLC (OECD Guideline 117), method [b] neutral range; format: physicochemical; settings: HPLC; for logP[b]: method [b] neutral range; for chromatographic logP: reversed-phase C18 HPLC column, neutral range, pH 7.8
Experimental: (§1) The log P values were determined analogously to OECD Guideline 117 (EC Directive 92/69/EEC) by HPLC (high-performance liquid chromatography) using reversed-phase columns (C 18), by the following methods:
[b] The LC-MS determination in the neutral range is effected at pH 7.8 with 0.001 molar aqueous ammonium hydrogencarbonate solution and acetonitrile as eluents; linear gradient from 10% acetonitrile to 95% acetonitrile.

Meloidogyne incognita = Meloidogyne incognita test (MELGIN); format: in vivo; settings: application rate of 20 ppm; after 14 days, by formation of galls
Experimental: Meloidogyne Incognita Test (MELGIN)
• Solvent: 125.0 parts by weight of acetone
To produce an appropriate active ingredient formulation, 1 part by weight of active ingredient is mixed with the specified amounts of solvent and the concentrate is diluted to the desired concentration with water.
Vessels are filled with sand, active ingredient solution, an egg/larvae suspension of the southern root-knot nematode (Meloidogyne incognita) and lettuce seeds. The lettuce seeds germinate and the plants develop. The galls develop on the roots
After 14 days, the nematicidal efficacy in % is determined by the formation of galls. 100% means that no galls have been found; 0% means that the number of galls on the treated plants corresponds to the untreated control.

[2] = log P by HPLC (OECD Guideline 117), method [a] acidic range; format: physicochemical; settings: for logP[a]: HPLC, method [a] acidic range; for chromatographic logP: reversed-phase C18 HPLC column, acidic range
Experimental: as §1
[a] The LC-MS determination in the acidic range is effected at pH 2.7 with 0.1% aqueous formic acid and acetonitrile (contains 0.1% formic acid) as eluents; linear gradient from 10% acetonitrile to 95% acetonitrile.

Tetranychus urticae = Tetranychus urticae spray test, OP-resistant (TETRUR); format: in vivo; settings: application rate of 500 g/ha, after 6 days; for pest or weed control at 500 g/ha: Tetranychus urticae, 144 h, read-out: efficacy
In short: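 Bean leaf discs infested with all stages of an OP-resistant Tetranychus urticae strain sprayed with compound in acetone/DMF with alkylaryl polyglycol ether emulsifier, diluted in water. Efficacy in % scored after 6 days; 100% means all mites killed.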

Phaedon cochleariae = Phaedon cochleariae spray test (PHAECO); format: in vivo; settings: after 7 days; for pest or weed control at 500 g/ha: Phaedon cochleariae, 168 h, read-out: efficacy
Experimental: Phaedon cochleariae—Spray Test (PHAECO)
• Solvent: 78.0 parts by weight of acetone • 1.5 parts by weight of dimethylformamide • Emulsifier: 0.5 part by weight of alkylaryl polyglycol ether
To produce an appropriate active ingredient formulation, 1 part by weight of active ingredient is mixed with the specified amounts of solvent and emulsifier, and the concentrate is diluted to the desired concentration with emulsifier-containing water.
Discs of Chinese cabbage leaves (Brassica pekinensis) are sprayed with an active ingredient formulation of the desired concentration and, after drying, populated with larvae of the mustard beetle (Phaedon cochleariae).
After 7 days, the efficacy in % is determined 100% means that all beetle larvae have been killed; 0% means that none of the beetle larvae have been killed.

Boophilus microplus = Boophilus microplus injection test (BOOPMI Inj); format: in vivo; settings: application rate of 20 μg/animal, assessed after 7 days by laying of fertile eggs
Experimental: Use Examples Boophilus microplus Injection Test (BOOPMI Inj) • Solvent: dimethyl sulphoxide
To prepare an appropriate active ingredient formulation, 10 mg of active ingredient are mixed with 0.5 ml of solvent and the concentrate is diluted with solvent to the desired concentration.
1 μl of the active ingredient solution is injected into the abdomen of 5 engorged adult female cattle ticks (Boophilus microplus). The animals are transferred into dishes and kept in a climate-controlled room.
The efficacy is assessed after 7 days by laying of fertile eggs. Eggs which are not visibly fertile are stored in a climate-controlled cabinet until the larvae hatch after about 42 days.
An efficacy of 100% means that none of the ticks has laid any fertile eggs; 0% means that all the eggs are fertile.

[3] = pH 2.7, HPLC method [a], read-out: logP[a]
[4] = pH 2.7, HPLC, pH 2.7, read-out: log P[a]

Structure (SMILES)	logP[b] [1]	logP[a] [2]	efficacy (Tetranychus urticae) [%]	efficacy (Phaedon cochleariae; application rate of 500 g/ha) [%]	other results
COc1nn(-c2cc(SCC(F)(F)F)c(Cl)cc2Cl)c(=O)n1C1CC1 [Example 107]	3.42	3.46	–	–	nematicidal efficacy (Meloidogyne incognita): 90%
C=CCn1c(SC)nn(-c2cc([S+]([O-])CC(F)(F)F)c(C)cc2F)c1=O (centres unmarked) [Example 272]	2.48	2.54	100	83	–
Cc1cc(F)c(-n2nc(OCC(Cl)(Cl)Cl)n(C)c2=O)cc1SCC(F)(F)F [Example 376]	4.18	4.23	100	100	–
COc1nn(-c2cc(SCC(F)(F)F)c(C)cc2F)c(=O)n1C [Example 93]	2.73	2.78	90	100	–
C=CCn1c(OC)nn(-c2cc([S+]([O-])CC(F)(F)F)c(C)cc2F)c1=O (racemic) [Example 183]	2.21	2.24	100	100	–
Cc1cc(F)c(-n2ncn(-c3ccc(F)cc3)c2=O)cc1[S+]([O-])CC(F)(F)F (racemic) [Example 355]	2.41	2.45	90	83	–
Cc1cc(F)c(-n2nnn(C)c2=S)cc1SCC(F)(F)F [Example 447, 1-{2-Fluoro-4-methyl-5-[(2,2,2-trifluoroethyl)sulphanyl]phenyl}-4-methyl-1,4-dihydro-5H-tetrazole-5-thione]	–	–	–	–	chromatographic logP [1]: 3.49; pest or weed control at 500 g/ha (Tetranychus urticae): 100%; pest or weed control at 500 g/ha (Phaedon cochleariae; application rate of 500 g/ha): 100%; chromatographic logP [2, 3]: 3.51; chromatographic logP [2, 4]: 3.51
Cc1cc(F)c(-n2nc(C)n(N)c2=O)cc1[S+]([O-])CC(F)(F)F (centres unmarked) [Example 209]	1.34	1.36	100	83	–
Cc1cc(F)c(-n2nc(C)n(-c3ccccc3)c2=O)cc1SCC(F)(F)F [Example 350]	3.34	3.40	100	83	–
Cc1cc(F)c(-n2nc(Cl)n(C)c2=O)cc1[S+]([O-])CC(F)(F)F (centres unmarked) [Example 437]	1.98	2.00	90	83	–
COCCOC1=CC(=O)N(c2cc(SCC(F)(F)F)c(C)cc2F)C1 [Example 328]	2.82	2.86	90	100	–
Cc1cc(F)c(-n2nc(C)n(C)c2=O)cc1SCC(F)(F)F [Example 10, 2-{2-Fluoro-4-methyl-5-[(2,2,2-trifluoroethyl)sulphanyl]phenyl}-4,5-dimethyl-2,4-dihydro-3H-1,2,4-triazol-3-one]	–	–	–	–	chromatographic logP [1]: 2.38; pest or weed control at 500 g/ha (Tetranychus urticae): 90%; pest or weed control at 500 g/ha (Phaedon cochleariae; application rate of 500 g/ha): 100%; chromatographic logP [2, 3]: 2.42; chromatographic logP [2, 4]: 2.42
CCN(CC)c1nn(-c2cc([S+]([O-])CC(F)(F)F)c(C)cc2F)c(=O)n1N (centres unmarked) [Example 223]	2.18	2.23	90	100	–
Cc1cc(F)c(-n2ncn(-c3ccc(F)cc3)c2=O)cc1SCC(F)(F)F [Example 349]	3.40	3.48	90	100	–
Cc1cc(F)c(-n2nc(C)n(C)c2=O)cc1[S+]([O-])CC(F)(F)F (centres unmarked) [Example 11, 2-{2-Fluoro-4-methyl-5-[(2,2,2-trifluoroethyl)sulphinyl]phenyl}-4,5-dimethyl-2,4-dihydro-3H-1,2,4-triazol-3-one]	–	–	–	–	chromatographic logP [1]: 1.5; pest or weed control at 500 g/ha (Tetranychus urticae): 100%; pest or weed control at 500 g/ha (Phaedon cochleariae; application rate of 500 g/ha): 100%; chromatographic logP [2, 3]: 1.57; chromatographic logP [2, 4]: 1.57
Cc1cc(F)c(-n2ncn(-c3ccccc3)c2=O)cc1SCC(F)(F)F [Example 351]	3.36	3.43	100	100	–
Cc1cc(F)c(N2CC(OC3CCCC3)=CC2=O)cc1SCC(F)(F)F [Example 329, 4-(Cyclopentyloxy)-1-{2-fluoro-4-methyl-5-[(2,2,2-trifluoroethyl)sulphanyl]phenyl}-1,5-dihydro-2H-pyrrol-2-one]	–	–	–	–	chromatographic logP [1]: 4.06; pest or weed control at 500 g/ha (Tetranychus urticae): 90%; pest or weed control at 500 g/ha (Phaedon cochleariae; application rate of 500 g/ha): 100%; chromatographic logP [2, 3]: 4.2; chromatographic logP [2, 4]: 4.2
Cc1cc(F)c(N2CC(OC3CCCC3)=CC2=O)cc1[S+]([O-])CC(F)(F)F (centres unmarked) [Example 336, 4-(Cyclopentyloxy)-1-{2-fluoro-4-methyl-5-[(2,2,2-trifluoroethyl)sulphinyl]phenyl}-1,5-dihydro-2H-pyrrol-2-one]	–	–	–	–	chromatographic logP [1]: 2.91; pest or weed control at 500 g/ha (Tetranychus urticae): 90%; pest or weed control at 500 g/ha (Phaedon cochleariae; application rate of 500 g/ha): 83%; chromatographic logP [2, 3]: 2.97; chromatographic logP [2, 4]: 2.97
C=CCn1c(OC)nn(-c2ccc(C)c(SCC(F)(F)F)c2)c1=O [Example 176]	3.81	3.87	90	100	–
CC(C)(C)COc1nn(-c2cc(SCC(F)(F)F)c(Cl)cc2F)c(=O)n1C1CC1 [Example 394]	4.89	4.95	100	83	–

Now from value to compound, other results behind:

logP[b] [1]	logP[a] [2]	Structure (SMILES)	efficacy (Tetranychus urticae) [%]	efficacy (Phaedon cochleariae; application rate of 500 g/ha) [%]	other results
4.96	5.01	C=C(C)CCOc1nn(-c2ccc(C)c(SCC(F)(F)F)c2)c(=O)n1C1CC1 [Example 138]	–	–	nematicidal efficacy (Meloidogyne incognita): 90%
2.57	2.61	C=CCn1c(OC)nn(-c2ccc(C)c([S+]([O-])CC(F)(F)F)c2)c1=O (centres unmarked) [Example 179]	90	100	–
2.55	2.61	COC1=CC(=O)N(c2ccc(C(F)(F)F)c([S+]([O-])CC(F)(F)F)c2)C1 (centres unmarked) [Example 321]	–	100	efficacy (Boophilus microplus): 100%
3.09	3.13	Cc1cc(F)c(-n2nc(OCC(Cl)(Cl)Cl)n(C)c2=O)cc1[S+]([O-])CC(F)(F)F (centres unmarked) [Example 392]	90	100	efficacy (Boophilus microplus): 100%
3.58	3.64	COc1nn(-c2cc(SCC(F)(F)F)c(C)cc2F)c(=O)n1CC1CC1 [Example 390]	100	100	efficacy (Boophilus microplus): 100%
1.83	1.87	Cc1cc(F)c(-n2nc(NC(C)C)n(N)c2=O)cc1[S+]([O-])CC(F)(F)F (centres unmarked) [Example 225]	100	100	–
3.21	3.29	CCOC1=CC(=O)N(c2cc(SCC(F)(F)F)c(C)cc2F)C1 [Example 330]	90	100	–
1.29	1.32	CNc1nn(-c2cc([S+]([O-])CC(F)(F)F)c(C)cc2F)c(=O)n1N (centres unmarked) [Example 219]	90	100	–
2.10	2.12	COc1nn(-c2cc([S+]([O-])CC(F)(F)F)c(Cl)cc2F)c(=O)n1C (centres unmarked) [Example 98]	100	–	efficacy (Phaedon cochleariae; application rate of 100 g/ha): 83%
4.45	4.55	Cc1ccc(-n2nc(OC(C)(C)C)n(C)c2=O)cc1SCC(F)(F)F [Example 154]	100	83	–
